Test system: BMDC/CD4+ T-cell cocultures
Test: T cell cytokine release in BMDC/T-cell cocultures
Assay type: cell-based, mouse
Settings: BMDCs pretreated with 10 μM, CD4+ T cells, 72 h
Protocol: To evaluate the adjuvant potential of the two most-promising desmuramylpeptides, 68 and 75, in terms of their effects on DC-mediated activation of CD4^+ and CD8^+ T cells, we used an in vitro antigen-presentation assay with C57BL/6 mouse bone-marrow-derived DCs (BMDCs). Following stimulation with 68 and 75 (1 or 10 μM) in the presence of ovalbumin soluble protein (50 μg/mL), BMDCs were cocultured with carboxyfluorescein succinimidyl ester (CFSE)-labeled naive ovalbumin-specific CD4^+ or CD8^+ T cells, which were isolated from splenocytes of OT II and OT I transgenic mice, respectively. After 3 days of coculture, CD25 (α subunit of IL-2 receptor)[108] expression was determined, along with the CFSE dilution, as markers of T-cell activation and proliferation, respectively. […]
Supernatants from CD4^+ and CD8^+ T cells after 72 h of co-incubation with BMDCs (pretreated with desmuramylpeptides [10 μM] and washed) were collected as described above. The cytokine concentrations were determined with the Cytometric Bead Array Mouse Th1/Th2/Th17 Cytokine Kit (contents: IL-2, IL-4, IL-6, IFN-γ, TNF, IL-17A, IL-10; BD Bioscience) on an Attune NxT flow cytometer (Thermo Fisher Scientific, Waltham, MA, U.S.A.). […] The data were analyzed using the FlowJo (Tree Star, Inc., Ashland, OR, U.S.A.) and Prism (GraphPad, San Diego, CA, U.S.A.) software. […]

## COc1cc(/C=C/C(=O)NCC(=O)N[C@H](C(=O)N[C@H](CCC(=O)OC2CCCC2)C(=O)OC2CCCC2)C(C)C)ccc1O [Compound 68, Dicyclopentyl ((E)-3-(4-Hydroxy-3-methoxyphenyl)acryloyl)glycyl-L-valyl-D-glutamate]
  Levels of IL-2, IL-6, IFN-γ, TNF-α and IL-17A in coculture supernatants: elevated levels
  Levels of Th2-associated IL-4 and IL-10 in coculture supernatants: unaffected levels
